Assay results reported in PubChem BioAssay AID248 (DTP/NCI, 2004).
Where “and” joins values, the source holds several entries; their conditions need not be identical. Equal values may be shown once. Toxic doses and inconclusive results are not listed.

Test system: L1210 leukemia ip in BDF1 mice, survival T/C
Assay: NCI In Vivo Anticancer Drug Screen. Data for tumor model L1210 Leukemia (intraperitoneal) in B6D2F1 (BDF1) mice
Details: higher = longer survival
Outline: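 Ratio derived from survival: compound-dosed mice over vehicle-dosed mice, all bearing a transplantable tumor.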

[1] = endpoint: mean survival time, dose: 100.0 mg/kg/injection, schedule: Q01DX Z (ip), vehicle: methylcellulose (MC)
[2] = endpoint: mean survival time, dose: 100.0 mg/kg/injection, schedule: Q04DX003 (ip), vehicle: saline with Tween-80
[3] = endpoint: mean survival time, dose: 200.0 mg/kg/injection, schedule: Q04DX003 (ip), vehicle: saline with Tween-80
[4] = endpoint: mean survival time, dose: 50.0 mg/kg/injection, schedule: Q04DX003 (ip), vehicle: Klucel (hydroxypropylcellulose) (HPC)
[5] = endpoint: mean survival time, dose: 100.0 mg/kg/injection, schedule: Q04DX002 (ip), vehicle: Klucel (hydroxypropylcellulose) (HPC)
[6] = endpoint: mean survival time, dose: 100.0 mg/kg/injection, schedule: Q04DX003 (ip), vehicle: Klucel (hydroxypropylcellulose) (HPC)
[7] = endpoint: mean survival time, dose: 200.0 mg/kg/injection, schedule: Q04DX002 (ip), vehicle: Klucel (hydroxypropylcellulose) (HPC)
[8] = endpoint: mean survival time, dose: 200.0 mg/kg/injection, schedule: Q04DX003 (ip), vehicle: Klucel (hydroxypropylcellulose) (HPC)
[9] = endpoint: mean survival time, dose: 400.0 mg/kg/injection, schedule: Q04DX002 (ip), vehicle: Klucel (hydroxypropylcellulose) (HPC)
[10] = endpoint: mean survival time, dose: 400.0 mg/kg/injection, schedule: Q04DX003 (ip), vehicle: Klucel (hydroxypropylcellulose) (HPC)
[11] = endpoint: mean survival time, dose: 100.0 mg/kg/injection, schedule: Q01DX009 (ip), vehicle: saline with Tween-80
[12] = endpoint: mean survival time, dose: 200.0 mg/kg/injection, schedule: Q01DX009 (ip), vehicle: saline with Tween-80
[13] = endpoint: mean survival time, dose: 100.0 mg/kg/injection, schedule: Q01DX009 (ip), vehicle: Klucel (hydroxypropylcellulose) (HPC)
[14] = endpoint: mean survival time, dose: 200.0 mg/kg/injection, schedule: Q01DX009 (ip), vehicle: Klucel (hydroxypropylcellulose) (HPC)
[15] = endpoint: mean survival time, dose: 400.0 mg/kg/injection, schedule: Q04DX003 (ip), vehicle: saline with Tween-80
[16] = endpoint: mean survival time, dose: 400.0 mg/kg/injection, schedule: Q01DX009 (ip), vehicle: Klucel (hydroxypropylcellulose) (HPC)
[17] = endpoint: mean survival time, dose: 12.5 mg/kg/injection, schedule: Q04DX003 (ip), vehicle: saline
[18] = endpoint: mean survival time, dose: 400.0 mg/kg/injection, schedule: Q01DX009 (ip), vehicle: saline with Tween-80
[19] = endpoint: mean survival time, dose: 100.0 mg/kg/injection, schedule: Q04DX003 (ip), vehicle: saline
[20] = endpoint: mean survival time, dose: 200.0 mg/kg/injection, schedule: Q04DX003 (ip), vehicle: saline
[21] = endpoint: mean survival time, dose: 400.0 mg/kg/injection, schedule: Q04DX003 (ip), vehicle: saline

c1ccc(CN(CCNc2ccccc2)c2ccccc2)cc1
T/C (endpoint: mean survival time, dose: 50.0 mg/kg/injection, schedule: Q01DX009 (ip), vehicle: water): 97 % of control | T/C (endpoint: mean survival time, dose: 100.0 mg/kg/injection, schedule: Q01DX009 (ip), vehicle: water): 94 % of control

CCN(CC)c1nc(SCc2ccccc2Cl)ncc1C
T/C [1]: 93 % of control | T/C (endpoint: mean survival time, dose: 200.0 mg/kg/injection, schedule: Q01DX Z (ip), vehicle: methylcellulose (MC)): 98 % of control

CCCCCCCCCCOP1(=O)C=C(C)CC1 (stereo not drawn)
T/C [2]: 93 % of control | T/C [3]: 93 % of control

COC(=O)C1=COC(C)C2CN3CCc4c([nH]c5ccccc45)C3CC12 (stereo not drawn)
T/C (endpoint: mean survival time, dose: 25.0 mg/kg/injection, schedule: Q04DX003 (ip), vehicle: Klucel (hydroxypropylcellulose) (HPC)): 96 % of control | T/C [4]: 98 % of control | T/C [5]: 98 % of control and 95 % of control | T/C [6]: 98 % of control | T/C [7]: 91 % of control and 102 % of control | T/C [8]: 95 % of control | T/C [9]: 87 % of control and 106 % of control | T/C [10]: 100 % of control

Cc1cccc(NC(=O)NCC(=O)N/N=C/c2cccc([N+](=O)[O-])c2)n1
T/C (endpoint: mean survival time, dose: 50.0 mg/kg/injection, schedule: Q01DX009 (ip), vehicle: saline with Tween-80): 93 % of control | T/C [11]: 90 % of control | T/C [12]: 88 % of control

O=C1NC(=O)C2(CCCCCCC2)N1
T/C (endpoint: mean survival time, dose: 50.0 mg/kg/injection, schedule: Q01DX009 (ip), vehicle: Klucel (hydroxypropylcellulose) (HPC)): 104 % of control | T/C [4]: 111 % of control | T/C [13]: 96 % of control | T/C [6]: 99 % of control | T/C [14]: 96 % of control | T/C [8]: 103 % of control

CCCCCCCCCCCCSC(=O)Nc1cc([N+](=O)[O-])ccc1C
T/C [6]: 92 % of control | T/C [8]: 88 % of control | T/C [10]: 88 % of control

O=C(OCCCl)c1ccc([N+](=O)[O-])cc1
T/C [2]: 95 % of control | T/C [3]: 95 % of control | T/C [15]: 102 % of control

COc1cc2c(cc1OC)C1C(=CCC3c4cc(OC)c(OC)cc4CC[N+]31C)C=C2 (stereo not drawn)
T/C (endpoint: mean survival time, dose: 6.25 mg/kg/injection, schedule: Q01DX009 (ip), vehicle: saline with Tween-80): 95 % of control | T/C (endpoint: mean survival time, dose: 12.5 mg/kg/injection, schedule: Q01DX009 (ip), vehicle: saline with Tween-80): 99 % of control | T/C (endpoint: mean survival time, dose: 25.0 mg/kg/injection, schedule: Q01DX009 (ip), vehicle: saline with Tween-80): 102 % of control

CC1C2c3ccccc3C(c3ccccc32)C1S(=O)(=O)F (stereo not drawn)
T/C [13]: 97 % of control | T/C [14]: 100 % of control | T/C [16]: 106 % of control

COc1ccc2nc3cc(Cl)ccc3c(NCCCCN(C)C)c2c1
T/C (endpoint: mean survival time, dose: 6.0 mg/kg/injection, schedule: Q04DX003 (ip), vehicle: saline): 97 % of control | T/C [17]: 99 % of control

CCOCC(C#N)C#N
T/C (endpoint: mean survival time, dose: 6.25 mg/kg/injection, schedule: Q01DX009 (ip), vehicle: saline): 94 % of control | T/C (endpoint: mean survival time, dose: 6.25 mg/kg/injection, schedule: Q04DX003 (ip), vehicle: saline): 96 % of control | T/C (endpoint: mean survival time, dose: 12.5 mg/kg/injection, schedule: Q01DX009 (ip), vehicle: saline): 92 % of control | T/C [17]: 106 % of control | T/C (endpoint: mean survival time, dose: 25.0 mg/kg/injection, schedule: Q04DX003 (ip), vehicle: saline): 99 % of control

Cc1cccc(NC(=O)NCCOC(=O)OCCNC(=O)Nc2cccc(C)c2C)c1C
T/C [11]: 97 % of control | T/C [2]: 91 % of control | T/C [12]: 98 % of control | T/C [3]: 91 % of control | T/C [18]: 97 % of control | T/C [15]: 106 % of control

CCOC(=O)/C(O)=C(\C=N\C(N)=O)C(=O)OCC
T/C (endpoint: mean survival time, dose: 100.0 mg/kg/injection, schedule: Q04DX003 (ip), vehicle: saline sonified): 93 % of control | T/C (endpoint: mean survival time, dose: 200.0 mg/kg/injection, schedule: Q04DX003 (ip), vehicle: saline sonified): 103 % of control | T/C (endpoint: mean survival time, dose: 400.0 mg/kg/injection, schedule: Q04DX003 (ip), vehicle: saline sonified): 95 % of control

COC1OC(CI)C(OC(=O)c2ccccc2)C(OC(=O)c2ccccc2)C1OC(=O)c1ccccc1 (stereo not drawn)
T/C [5]: 101 % of control | T/C [7]: 93 % of control | T/C [9]: 121 % of control

CCOc1ccc(C(/C(Cl)=N/O)C(Cl)(Cl)Cl)cc1 (stereo not drawn)
T/C (endpoint: mean survival time, dose: 12.5 mg/kg/injection, schedule: Q04DX003 (ip), vehicle: acetone): 93 % of control | T/C (endpoint: mean survival time, dose: 25.0 mg/kg/injection, schedule: Q04DX003 (ip), vehicle: acetone): 97 % of control | T/C (endpoint: mean survival time, dose: 50.0 mg/kg/injection, schedule: Q04DX003 (ip), vehicle: acetone): 92 % of control

CCCCCCCCCCCCC1C(=O)NC(=S)NC1=O
T/C (endpoint: mean survival time, dose: 75.0 mg/kg/injection, schedule: Q01DX001 (ip), vehicle: other): 97 % of control and 100 % of control | T/C (endpoint: mean survival time, dose: 150.0 mg/kg/injection, schedule: Q01DX001 (ip), vehicle: other): 101 % of control and 113 % of control | T/C (endpoint: mean survival time, dose: 300.0 mg/kg/injection, schedule: Q01DX001 (ip), vehicle: other): 103 % of control

O=C(Nc1[nH]nc2nccnc12)C(F)(F)F
T/C [11]: 97 % of control | T/C [2]: 105 % of control | T/C [12]: 92 % of control | T/C [3]: 97 % of control | T/C [18]: 103 % of control | T/C [15]: 100 % of control

CC(=O)OC1c2ccccc2-c2ccc([N+](=O)[O-])cc21 (stereo not drawn)
T/C [2]: 93 % of control and 100 % of control | T/C [3]: 100 % of control and 102 % of control | T/C [15]: 96 % of control and 98 % of control

Cn1nnnc1N
T/C [13]: 96 % of control | T/C (endpoint: mean survival time, dose: 100.0 mg/kg/injection, schedule: Q01DX009 (ip), vehicle: saline): 98 % of control | T/C [19]: 103 % of control | T/C [14]: 100 % of control | T/C (endpoint: mean survival time, dose: 200.0 mg/kg/injection, schedule: Q01DX009 (ip), vehicle: saline): 96 % of control | T/C [20]: 105 % of control | T/C [16]: 95 % of control | T/C (endpoint: mean survival time, dose: 400.0 mg/kg/injection, schedule: Q01DX009 (ip), vehicle: saline): 89 % of control | T/C [21]: 100 % of control

N#CC(C#N)=NNc1ccc(S(=O)(=O)c2ccc(NN=C(C#N)C#N)cc2)cc1
T/C [2]: 103 % of control | T/C [3]: 97 % of control | T/C [15]: 97 % of control

Nc1nc(=S)c2ncn(C3OC(COC(=O)c4ccccc4)C(OC(=O)c4ccccc4)C3OC(=O)c3ccccc3)c2[nH]1 (stereo not drawn)
T/C (endpoint: mean survival time, dose: 0.1 mg/kg/injection, schedule: Q01DX009 (ip), vehicle: saline): 104 % of control | T/C (endpoint: mean survival time, dose: 0.3 mg/kg/injection, schedule: Q01DX009 (ip), vehicle: saline): 118 % of control | T/C (endpoint: mean survival time, dose: 0.6 mg/kg/injection, schedule: Q01DX009 (ip), vehicle: saline): 118 % of control | T/C (endpoint: mean survival time, dose: 5.0 mg/kg/injection, schedule: Q01DX009 (ip), vehicle: saline): 159 % of control | T/C (endpoint: mean survival time, dose: 29.0 mg/kg/injection, schedule: Q01DX Z (ip), vehicle: methylcellulose (MC)): 116 % of control | T/C (endpoint: mean survival time, dose: 45.0 mg/kg/injection, schedule: Q01DX009 (ip), vehicle: saline): 164 % of control | T/C [1]: 153 % of control | T/C (endpoint: mean survival time, dose: 175.0 mg/kg/injection, schedule: Q01DX009 (ip), vehicle: saline): 98 % of control | T/C (endpoint: mean survival time, dose: 265.0 mg/kg/injection, schedule: Q01DX001 (ip), vehicle: saline): 118 % of control | T/C (endpoint: mean survival time, dose: 400.0 mg/kg/injection, schedule: Q01DX001 (ip), vehicle: saline): 86 % of control

CCC1(c2ccccc2)C(=O)NC(=O)NC1=O
T/C (endpoint: mean survival time, dose: 75.0 mg/kg/injection, schedule: Q01DX001 (ip), vehicle: saline): 105 % of control | T/C (endpoint: mean survival time, dose: 150.0 mg/kg/injection, schedule: Q01DX001 (ip), vehicle: saline): 100 % of control | T/C (endpoint: median survival time, dose: 25.0 mg/kg/injection, schedule: Q12HX034 (sc), vehicle: saline): 106 % of control | T/C (endpoint: median survival time, dose: 50.0 mg/kg/injection, schedule: Q12HX034 (sc), vehicle: saline): 100 % of control

NC(=O)N/N=C(\CBr)c1ccc([N+](=O)[O-])cc1
T/C [19]: 96 % of control | T/C [20]: 89 % of control | T/C [21]: 91 % of control

CCCCS(=O)(=O)CCN1C(=O)C2C3CCC(O3)C2C1=O (stereo not drawn)
T/C [5]: 98 % of control | T/C [7]: 123 % of control | T/C [9]: 107 % of control

C(CC1CC1)OCOCCC1CC1
T/C (endpoint: mean survival time, dose: 100.0 mg/kg/injection, schedule: Q01DX001 (ip), vehicle: saline with Tween-80): 93 % of control | T/C (endpoint: mean survival time, dose: 200.0 mg/kg/injection, schedule: Q01DX001 (ip), vehicle: saline with Tween-80): 97 % of control
